Reference: patent US8580525B2, “Methods of screening for LTRPC7 modulators” (The Queen's Medical Center, priority 2000, dated 2013)
Entries after “also recorded” stand apart in the source; their conditions may differ.

Legend:
RBL-2H3 = assay: ATP-dependent endogenous currents, whole-cell patch-clamp; type: cell-based; conditions: 6 mM ATP in pipette solution
Method: (§1) For patch-clamp experiments, cells grown on glass coverslips were transferred to the recording chamber and kept in a standard modified Ringer's solution of the following composition (in mM): NaCl 145, KCl 2.8, CsCl 10, CaCl2 1, MgCl2 2, glucose 10, Hepes.NaOH 10, pH 7.2. In some experiments, nominally Ca^2+ and/or Mg^2+-free extracellular solutions or isotonic Ca^2+ solutions (120 mM CaCl2) were applied by pressure ejection from wide-tipped pipettes. Intracellular pipette-filling solutions contained (in mM): Cs-glutamate 145, NaCl 8, MgCl2 1, Cs-BAPTA 10, pH 7.2 adjusted with CsOH. In some experiments, Cs-glutamate was replaced equimolarly by K-glutamate or N-methyl-D-glucamine-chloride. Patch-clamp experiments were performed in the tight-seal whole-cell configuration at 21-25° C. High-resolution current recordings were acquired by a computer-based patch-clamp amplifier system (EPC-9, HEKA, Lambrecht, Germany). Sylgard-coated patch pipettes had resistances between 2-4 M after filling with the standard intracellular solution. […] Capacitive currents and series resistance were determined and corrected before each voltage ramp using the automatic capacitance compensation of the EPC-9. […]

Jurkat T-lymphocytes = assay: as above; type: cell-based; conditions: 6 mM ATP in pipette solution
Method: as §1

Wild type HEK-293 = assay: as above; type: cell-based, human; conditions: 6 mM ATP in pipette solution
Method: as §1

LTRPC7 [1] = biological target: T1, LTRPC7 (Mus musculus, UniProt Q923J1); assay: Intracellular perfusion with ATP, whole-cell patch-clamp of recombinant LTRPC7; type: cell-based
T1 construct: expressed in transfected cells
T1 sequence (Q923J1 2-1863 limits assumed): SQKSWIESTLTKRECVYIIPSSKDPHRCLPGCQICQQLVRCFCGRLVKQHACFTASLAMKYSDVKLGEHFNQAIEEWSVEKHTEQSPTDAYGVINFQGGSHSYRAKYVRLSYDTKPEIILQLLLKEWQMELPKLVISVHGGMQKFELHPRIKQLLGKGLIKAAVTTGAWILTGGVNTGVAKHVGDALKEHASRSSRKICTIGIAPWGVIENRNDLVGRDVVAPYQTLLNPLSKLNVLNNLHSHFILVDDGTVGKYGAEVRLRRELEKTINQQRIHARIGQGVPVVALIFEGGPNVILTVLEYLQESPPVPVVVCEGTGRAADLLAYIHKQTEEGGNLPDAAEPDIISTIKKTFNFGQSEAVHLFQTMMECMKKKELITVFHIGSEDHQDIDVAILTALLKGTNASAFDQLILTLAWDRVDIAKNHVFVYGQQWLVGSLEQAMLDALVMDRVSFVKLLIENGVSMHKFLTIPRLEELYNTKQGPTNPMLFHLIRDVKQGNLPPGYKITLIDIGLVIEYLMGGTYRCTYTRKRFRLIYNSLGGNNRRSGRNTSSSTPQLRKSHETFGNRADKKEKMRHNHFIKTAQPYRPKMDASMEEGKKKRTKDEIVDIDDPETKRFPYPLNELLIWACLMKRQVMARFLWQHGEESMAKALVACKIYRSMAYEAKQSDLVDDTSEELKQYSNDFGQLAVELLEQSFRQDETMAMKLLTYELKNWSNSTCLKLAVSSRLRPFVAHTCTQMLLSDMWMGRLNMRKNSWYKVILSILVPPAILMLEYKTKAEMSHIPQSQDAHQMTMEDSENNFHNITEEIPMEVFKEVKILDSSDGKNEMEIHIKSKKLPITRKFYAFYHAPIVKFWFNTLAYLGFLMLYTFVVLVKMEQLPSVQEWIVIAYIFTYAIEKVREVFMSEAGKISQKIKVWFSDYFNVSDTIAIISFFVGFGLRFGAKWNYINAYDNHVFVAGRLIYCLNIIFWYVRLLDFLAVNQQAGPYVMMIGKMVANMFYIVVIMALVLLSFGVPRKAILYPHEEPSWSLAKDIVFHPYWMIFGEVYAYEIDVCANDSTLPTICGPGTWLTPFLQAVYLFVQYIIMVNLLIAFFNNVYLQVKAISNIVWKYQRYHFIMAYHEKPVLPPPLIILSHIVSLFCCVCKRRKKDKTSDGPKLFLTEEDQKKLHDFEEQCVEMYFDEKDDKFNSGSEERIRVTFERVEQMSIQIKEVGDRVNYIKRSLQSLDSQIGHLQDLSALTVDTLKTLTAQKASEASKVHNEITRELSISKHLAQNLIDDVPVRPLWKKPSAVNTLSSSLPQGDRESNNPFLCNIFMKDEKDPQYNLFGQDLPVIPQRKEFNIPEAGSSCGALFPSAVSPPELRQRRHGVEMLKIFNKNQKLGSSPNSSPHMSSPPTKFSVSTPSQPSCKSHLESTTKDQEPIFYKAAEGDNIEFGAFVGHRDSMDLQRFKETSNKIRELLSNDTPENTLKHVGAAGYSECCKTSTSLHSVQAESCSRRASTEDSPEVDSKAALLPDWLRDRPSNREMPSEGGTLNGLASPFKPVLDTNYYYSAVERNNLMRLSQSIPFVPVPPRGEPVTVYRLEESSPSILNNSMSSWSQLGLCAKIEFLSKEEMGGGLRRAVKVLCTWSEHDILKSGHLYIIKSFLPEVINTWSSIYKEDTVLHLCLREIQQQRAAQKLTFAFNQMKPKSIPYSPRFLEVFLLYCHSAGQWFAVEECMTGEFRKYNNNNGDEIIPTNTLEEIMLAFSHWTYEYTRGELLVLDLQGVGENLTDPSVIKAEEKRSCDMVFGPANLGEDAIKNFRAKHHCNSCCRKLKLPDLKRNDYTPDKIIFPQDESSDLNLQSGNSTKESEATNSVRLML
Method: (§2) For patch-clamp experiments, cells grown on glass coverslips were transferred to the recording chamber and kept in a standard modified Ringer's solution of the following composition (in mM): NaCl 145, KCl 2.8, CsCl 10, CaCl2 1, MgCl2 2, glucose 10, Hepes.NaOH 10, pH 7.2. In some experiments, nominally Ca^2+ and/or Mg^2+-free extracellular solutions or isotonic Ca^2+ solutions (120 mM CaCl2) were applied by pressure ejection from wide-tipped pipettes. Intracellular pipette-filling solutions contained (in mM): Cs-glutamate 145, NaCl 8, MgCl2 1, Cs-BAPTA 10, pH 7.2 adjusted with CsOH. In some experiments, Cs-glutamate was replaced equimolarly by K-glutamate or N-methyl-D-glucamine-chloride. Patch-clamp experiments were performed in the tight-seal whole-cell configuration at 21-25° C. High-resolution current recordings were acquired by a computer-based patch-clamp amplifier system (EPC-9, HEKA, Lambrecht, Germany). Sylgard-coated patch pipettes had resistances between 2-4 M after filling with the standard intracellular solution. Immediately following establishment of the whole-cell configuration, voltage ramps of 50 ms duration spanning the voltage range of −100 to +100 mV were delivered from a holding potential of 0 mV at a rate of 0.5 Hz over a period of 200 to 400 seconds. All voltages were corrected for a liquid junction potential of 10 mV between external and internal solutions when internal solutions contained glutamate. Currents were filtered at 2.3 kHz and digitized at 100 μs intervals. Capacitive currents and series resistance were determined and corrected before each voltage ramp using the automatic capacitance compensation of the EPC-9. The low-resolution temporal development of currents at a given potential was extracted from individual ramp current records by measuring the current amplitudes at voltages of −80 mV or +80 mV.

LTRPC7 [2] = biological target: T1, LTRPC7; assay: Equimolar substitution of 10 mM Ca^2+ by other divalent metal ions, whole-cell patch-clamp; type: cell-based; conditions: 10 mM test cation replacing 10 mM Ca^2+, HEK-293 over-expressing LTRPC7
Method: as §2
LTRPC7 represents an ion channel that is selective for divalent cations at negative membrane potentials and its activity is regulated by intracellular levels of Mg.nucleotides (Nadler et al., 2001). Although the channel readily permeates monovalent ions upon removal of all divalent ions, inward currents carried by LTRPC7 under physiological conditions are largely carried by the dominant extracellular ion species Ca^2+ and Mg^2+. Ion currents carried by LTRPC7 have therefore been designated MagNuM (for Magnesium.Nucleotide-regulated Metal ion currents). In order to assess the permeation properties of LTRPC7 for other divalent ions, we measured ionic currents in substitution experiments, where 10 mM Ca^2+ was replaced with 10 mM of other divalent cations (FIG. 7). In these experiments, HEK-293 cells expressing LTRPC7 were kept in a bath solution containing 10 mM Ca^2+, without Mg^2+, and development of MagNuM was monitored by whole-cell patch-clamp as described previously (Nadler et al., 2001). When the current had reached maximal amplitude, cells were transiently exposed to an extracellular solution containing 10 mM of the test cation applied via a puffer pipette for a period of 60 s.

LTRPC7 [3] = biological target: T1, LTRPC7; assay: Mn^2+ quench of fura-2 fluorescence in intact cells; type: cell-based; conditions: 1 mM Mn^2+, initial 60 s
Method: In the second approach, we assayed LTRPC7 activity in intact cells using Mn^2+ quench of fura-2 fluorescence (FIG. 11D). In this experiment, HEK-293 cells over-expressing LTRPC7 were loaded with fura-2-AM and bathed in standard external solution with 1 mM Ca^2+ and 2 mM Mg^2+. Ca^2+-independent fluorescence was monitored at 360 nm (the isosbestic wavelength of fura-2) and after 120 s, an external solution containing 1 mM Mn^2+, 1 mM Ca^2+, and 0 Mg^2+ was applied for 180 s. To determine baseline quench levels, this protocol was applied to HEK-293 cells that were transfected with the same tetracycline-inducible recombinant LTRPC7 construct, but remained uninduced. As clearly shown in FIG. 11D, the application of 1 mM Mn^2+ caused a pronounced quench of the 360 nm signal in HEK-293 cells induced to express LTRPC7 (n=5), whereas Mn^2+-induced quench of the 360 nm signal in uninduced cells (n=5) was noticeable but much less dramatic. Linear regression over the initial 60 s of Mn^2+ exposure yielded a 10-fold higher rate of Mn^2+-induced quench of fura-2 fluorescence in induced cells (28%/o/min) as compared to uninduced cells (2.9%/min).

LTRPC7 [4] = biological target: T1, LTRPC7; assay: Permeation of divalent metal ions in isotonic solutions, whole-cell patch-clamp; type: cell-based; conditions: isotonic solution (120 mM) of test cation for 60 s, HEK-293 over-expressing LTRPC7
Method: as §2
The use of isotonic solutions to probe divalent cation entry through LTRPC7 avoids complications in permeation properties arising from ion-ion interactions, and therefore allows unequivocal interpretation of inward currents—maintained or increased inward currents can only be consistent with permeation of the available extracellular cation. Isotonic solutions of 120 mM of each divalent ion yielded appropriate osmolarities within 10 mOsm from the standard bath and pipette solutions. In this series of experiments, the cells were bathed in the standard external solution containing 1 mM Ca^2+ and 2 mM Mg^2+. At 200 s, when MagNuM had reached its full amplitude, isotonic solutions of each transition metal were applied for 60 s via a puffer pipette.

SMILES	outwardly rectifying cationic conductance (RBL-2H3)	outwardly rectifying cationic conductance (Jurkat T-lymphocytes)	outwardly rectifying cationic conductance (Wild type HEK-293)	change of maximum outward current after whole-cell establishment (LTRPC7 [1]; 6 mM ATP in pipette, +80 mV, 300 s)	intracellular concentration that causes the LTRPC7 channel to close (LTRPC7 [1]; intracellular ATP)	intracellular concentration that causes the LTRPC7 channel to reopen (LTRPC7 [1]; intracellular ATP)	effect on outward current (LTRPC7 [2]; 60 s, +80 mV)	effect on inward current (LTRPC7 [2]; 60 s, -80 mV)	increase in inward current compared to Ca^2+ (LTRPC7 [2]; no Mg^2+, -80 mV)	rate of Mn^2+-induced quench, induced compared to uninduced cells (LTRPC7 [3]) [fold]	rate of Mn^2+-induced quench of fura-2 fluorescence (LTRPC7 [3]; 360 nm, uninduced cells) [%/min]	effect on outward current (LTRPC7 [4]; +80 mV)	effect on inward current (LTRPC7 [4]; -80 mV)
Nc1ncnc2c1ncn2[C@@H]1O[C@H](COP(=O)(O)OP(=O)(O)OP(=O)(O)O)[C@@H](O)[C@H]1O [ATP]	absent	absent	absent	currents are actually decreasing after break-in	6-10 millimolar	0-4 millimolar	–	–	–	–	–	–	–
[Mn+2] [Mn^2+]	–	–	–	–	–	–	block of outward currents; also recorded: block of the outward current	slight to moderate increase of the inward current	less than double	10	2.9	strong block of the outward current	gradual increase of the inward current
